Here are results for 1 molecule from patent US12691092B2, “Method for reducing cutaneous skin scarring by pre-emptive priming and compounds and compositions for its implementation” (SOS SCIENCE OF SKIN LTD, priority 2020, dated 2026).

In test [1] the test system is human skin scarring model. As to the kind of experiment: Blood flow by dynamic optical coherence tomography (D-OCT). The class given is in vivo. The method, then: (§1) A double-blind randomized placebo-controlled trial was conducted using a temporal punch-biopsy model. The punch biopsy and topical application methodology used in the study is illustrated in FIG. 1, namely showing pre-injury pre-emptive priming (7-days), pre-injury pre-emptive priming (3-days), day of injury (immediate application on day 0), post-injury (delayed 2 weeks post injury) including biopsy time points and time of topical applications. Each group applied both placebo and topical formulations twice daily for the duration of the study until week 8, with only the starting time point differing between groups Participants were split into 4 groups (n=10 in each group) in order to compare different modes (timings) of commencement of the topical application: • Group-1: Pre-emptive Priming (7-days): pre-injury • Group-2: Pre-emptive Priming (3-days): pre-injury • Group-3: Immediate (0-day): day-of-injury • Group-4: Delayed (14-days): post-injury Clinical quantitative devices were used to objectively monitor cutaneous healing at weekly intervals and punch biopsies were performed on day 0 (uninjured skin) and at weeks 4 and 8 for protein and gene expression analyses. In the trial, topical EGCG and a placebo topical were applied twice daily for the duration of the trial until week 8 with only the starting time points differing between groups. Blood flow analysis using non-invasive objective measures, including full-field laser perfusion imaging (FLPI) and dynamic optical coherence tomography (D-OCT), was undertaken. Clinical images and the corresponding FLPI and D-OCT images are shown in FIGS. 6a, 6b and 6c respectively.

The test system of test [2] is Nuclear factor erythroid 2-related factor 2 (NRF2). Description: NRF2 immunohistochemical marker (anti-oxidant effect). The class given is in vivo, human. As to conditions: scar samples, weeks 4 and 8. The method, then:
as §1, with “[…] Excisional skin biopsies in upper arms” for “In the trial, topical EGCG and a placebo topical”, “evaluated weekly” for “applied twice daily for the duration of the trial until week 8”, “multiple quantitative devices over an 8-week period. […]” for “only the starting time points differing between groups. Blood flow analysis using non-invasive objective measures, including full-field laser perfusion imaging (FLPI) and dynamic optical coherence tomography (D-OCT), was undertaken. Clinical images and the corresponding FLPI and D-OCT images are shown in FIGS. 6a, 6b and 6c respectively.”

In the next test the test system is Hemeoxygenase-1 (HO-1). Description: HO-1 immunohistochemical marker (anti-oxidant effect). The class given is in vivo, human. As to conditions: week 4, all groups, p<0.01. The method, then: as §1, with “[…] Excisional skin biopsies in upper arms” for “In the trial, topical EGCG and a placebo topical”, “evaluated weekly” for “applied twice daily for the duration of the trial until week 8”, “multiple quantitative devices over an 8-week period. […]” for “only the starting time points differing between groups. Blood flow analysis using non-invasive objective measures, including full-field laser perfusion imaging (FLPI) and dynamic optical coherence tomography (D-OCT), was undertaken. Clinical images and the corresponding FLPI and D-OCT images are shown in FIGS. 6a, 6b and 6c respectively.”

Test [3] deals with human skin scarring model. As to the kind of experiment: Skin thickness by high frequency ultrasound (HFUS). It is filed as in vivo. As to conditions: significant in group-1 week 8 (p=0.002); group-2 weeks 6, 8; group-3 weeks 5-8; group-4 weeks 3, 5-8 (p<0.01). The method, then:
as §1, with “[…] Structural changes in” for “In”, “scars were assessed clinically by high frequency ultrasound (HFUS)” for “trial, topical EGCG”, “elasticity probe,” for “a placebo topical were applied twice daily for the duration of the trial until week 8 with only the starting time points differing between groups. Blood flow analysis using non-invasive objective measures, including full-field laser perfusion imaging (FLPI)”, “elastin” for “dynamic optical coherence tomography (D-OCT), was undertaken. Clinical images”, “collagen markers. […]” for “the corresponding FLPI and D-OCT images are shown in FIGS. 6a, 6b and 6c respectively.”

The test system of test [4] is human skin scarring model. As to the kind of experiment: Blood flow by full-field laser perfusion imaging (FLPI). The class given is in vivo. The method, then: as §1, with “Blood flow analysis using non-invasive objective measures, including full-field laser perfusion imaging (FLPI) and dynamic optical coherence tomography (D-OCT), was undertaken. Clinical images and the corresponding FLPI and D-OCT images are shown in FIGS. 6a, 6b and 6c respectively.” left out

The next test concerns HBB, HBA1, HBA2. Description: mRNA sequencing of scar biopsies. The note with it: group-1, week 4. The class given is in vivo, human. As for the experimental part: as §1, with “[…] Excisional skin biopsies in upper arms” for “In the trial, topical EGCG and a placebo topical”, “evaluated weekly” for “applied twice daily for the duration of the trial until week 8”, “multiple quantitative devices over an 8-week period. […]” for “only the starting time points differing between groups. Blood flow analysis using non-invasive objective measures, including full-field laser perfusion imaging (FLPI) and dynamic optical coherence tomography (D-OCT), was undertaken. Clinical images and the corresponding FLPI and D-OCT images are shown in FIGS. 6a, 6b and 6c respectively.”

As to `O=C(OC1Cc2c(O)cc(O)cc2OC1c1cc(O)c(O)c(O)c1)c1cc(O)c(O)c(O)c1` (single isomer, unassigned; (-)) [EGCG, (-)-epigallocatechin-3-gallate], the “D-OCT blood flow, EGCG-treated compared to placebo” value in test [1] (group-1 weeks 1-8, group-2 weeks 1-8, group-3 weeks 1-5, 7, 8, group-4 weeks 4-7, p<0.01) is given as “significantly decreased”. In addition, the “D-OCT blood flow, group comparison, groups 1-3 vs group-4” value in test [1] (week 1, p<0.001, p=0.006, p=0.001) is reported as “reduced blood flow more than group-4”. Moreover, the “D-OCT blood flow, group comparison, group-1 vs group-4” value in test [1] (week 2, p=0.016) is on record as “greater difference than group-4”. Moreover, the “D-OCT blood flow, group comparison, group-2 vs groups-3 and -4” value in test [1] (week 8, p=0.003, p=0.002) was “reduced more than groups-3 and -4”. Besides, the “NRF2 amounts, EGCG samples compared to placebo” value in test [2] is “slightly higher amounts of NRF2 compared to placebo samples, although not significantly”. In addition, the “HO-1 levels, EGCG-treated samples compared to placebo” value in the test with Hemeoxygenase-1 (HO-1) is “significantly higher”. In addition, the “HFUS skin thickness, EGCG scars compared to placebo scars” value in test [3] is “lower”. Also, in test [4] (group-1 weeks 1 and 8, group-2 weeks 3, 7, 8, group-3 weeks 1-3, 6-8, group-4 weeks 3-8, p<0.01), the “FLPI blood flow, EGCG arms compared to placebo arms” value is “significant reduction”. The “FLPI blood flow, between group comparison, groups-1 and 3 vs group-4” value in test [4] (week 1, p<0.001, p=0.002) was “reduced blood flow more than group-4”. In the test with HBB, HBA1, HBA2, the “mRNA sequencing: HBB, HBA1 and HBA2 expression with EGCG compared to placebo” value is listed as “reduced”.
